pKi: −log10 of the molar value. In brackets after ≈: the same amount, converted by molar mass.

Experimental findings from ChEMBL document CHEMBL1130807, “The synthesis of symmetrical and unsymmetrical P1/P1' cyclic ureas as HIV protease inhibitors” (Bioorg Med Chem Lett, 1998) are described below.

Data set [1] is described as follows: Solubility in 0.1 N HCl. To be noted: read-out: S. Type of data set: physicochemical.
Data set [2] concerns Human immunodeficiency virus 1. The experiment in a line: Compound was evaluated for potency against Double mutant HIV I84V/V82F strains. Type of data set: functional.
The test system of data set [3] is Human immunodeficiency virus 1. The experiment in a line: Compound was evaluated for potency against HIV single mutant I84V strain. Type of data set: functional.
Data set [4] concerns Human immunodeficiency virus 1. Briefly: Compound was evaluated for potency against […] HIV WT strain. The class given is functional.
In data set [5] the target is Human immunodeficiency virus type 1 protease (Human immunodeficiency virus 1, UniProt Q72874). Briefly: Inhibition of human immunodeficiency virus (HIV) protease isolated enzyme assay.
Data set [6] can be described thus: Antiviral activity was evaluated by whole cell based assay. Type of data set: functional.

`CN(C)c1ccc(C[C@@H]2[C@H](O)[C@@H](O)[C@@H](Cc3ccc(N(C)C)cc3)N(Cc3cccc(C(=O)Nc4nc5ccccc5[nH]4)c3)C(=O)N2Cc2cccc(C(=O)Nc3nc4ccccc4[nH]3)c2)cc1`: in data set [1], the solubility came out at 13.2 µg/mL (≈ 14.5 µM). In addition, the IC90 in data set [2] stood at 22 nM; in data set [3], 8 nM; in data set [4], 8 nM; in data set [6], 8 nM. The pKi in data set [5] was 10.42.

As to `O=C(Nc1nc2ccccc2[nH]1)c1cccc(CN2C(=O)N(Cc3cccc(C(=O)Nc4nc5ccccc5[nH]4)c3)[C@H](Cc3ccc(OCc4ccccc4)cc3)[C@H](O)[C@@H](O)[C@H]2Cc2ccc(OCc3ccccc3)cc2)c1`, the pKi in data set [5] was 8.43. Further, the 90% effect level in data set [6] (IC90) was put at 125 nM.

In data set [5], `CCCCCC[C@@H]1[C@H](O)[C@@H](O)[C@@H](CCCCCC)N(Cc2cccc(C(=O)Nc3nc4ccccc4[nH]3)c2)C(=O)N1Cc1cccc(C(=O)Nc2nc3ccccc3[nH]2)c1` had a negative-log Ki (pKi) of 9.46. The compound further came in with an IC90 in data set [6] of 86 nM.

For the compound `CC[C@@H]1[C@H](O)[C@@H](O)[C@@H](CC)N(Cc2cccc(C(=O)Nc3nc4ccccc4[nH]3)c2)C(=O)N1Cc1cccc(C(=O)Nc2nc3ccccc3[nH]2)c1`, the negative-log Ki (pKi) in data set [5] was 8.35. The compound further displayed an IC90 in data set [6] of 570 nM.

For the compound `CC(C)C[C@@H]1[C@H](O)[C@@H](O)[C@@H](CC(C)C)N(Cc2cccc(C(=O)Nc3nc4ccccc4[nH]3)c2)C(=O)N1Cc1cccc(C(=O)Nc2nc3ccccc3[nH]2)c1`, the IC90 in data set [2] was 12 nM; in data set [3], 20 nM; in data set [4], 26 nM; in data set [6], 59 nM. The compound also gave a pKi in data set [5] of 9.52.

For `CC(C)C[C@@H]1[C@H](O)[C@@H](O)[C@@H](Cc2ccccc2)N(Cc2cccc(C(=O)Nc3nc4ccccc4[nH]3)c2)C(=O)N1Cc1cccc(C(=O)Nc2nc3ccccc3[nH]2)c1`, in data set [1], the solubility is 160 µg/mL (≈ 202 µM). Also, the IC90 in data set [2] came to 82 nM; in data set [3] it was 9 nM; in data set [4], 10 nM; in data set [6] it was 10 nM. Besides, the pKi in data set [5] was 10.42.

In data set [5], `O=C(Nc1nc2ccccc2[nH]1)c1cccc(CN2C(=O)N(Cc3cccc(C(=O)Nc4nc5ccccc5[nH]4)c3)[C@H](Cc3ccc(O)cc3)[C@H](O)[C@@H](O)[C@H]2Cc2ccc(O)cc2)c1` gave a negative logarithm of the Ki (pKi) of 10.46. This compound also displayed an IC90 in data set [6] of 35 nM.

For `Nc1ccc(C[C@@H]2[C@H](O)[C@@H](O)[C@@H](Cc3ccc(N)cc3)N(Cc3cccc(C(=O)Nc4nc5ccccc5[nH]4)c3)C(=O)N2Cc2cccc(C(=O)Nc3nc4ccccc4[nH]3)c2)cc1`, in data set [1], the solubility amounted to 8.3 µg/mL (≈ 9.71 µM). Further, the IC90 in data set [2] amounted to 76 nM; in data set [3] it was 23 nM; in data set [4], 10 nM; in data set [6], 10 nM. The compound further gave a negative-log Ki (pKi) in data set [5] of 10.80.

As to `CC[C@@H]1[C@H](O)[C@@H](O)[C@@H](Cc2ccccc2)N(Cc2cccc(C(=O)Nc3nc4ccccc4[nH]3)c2)C(=O)N1Cc1cccc(C(=O)Nc2nc3ccccc3[nH]2)c1`, the pKi in data set [5] is 10.16. In data set [6], the 90% effect level (IC90) was put at 26 nM.

In turn, `COc1ccc(C[C@@H]2[C@H](O)[C@@H](O)[C@@H](Cc3ccc(OC)cc3)N(Cc3cccc(C(=O)Nc4nc5ccccc5[nH]4)c3)C(=O)N2Cc2cccc(C(=O)Nc3nc4ccccc4[nH]3)c2)cc1` showed a negative-log Ki (pKi) in data set [5] of 10.59. In data set [6], this compound registered an IC90 of 19 nM.

As to `O=C(Nc1nc2ccccc2[nH]1)c1cccc(CN2C(=O)N(Cc3cccc(C(=O)Nc4nc5ccccc5[nH]4)c3)[C@H](C3CCCCC3)[C@H](O)[C@@H](O)[C@H]2C2CCCCC2)c1`, in data set [5], the pKi is 9.54. Moreover, the IC90 in data set [6] was determined as 14 nM.

For `O=C(Nc1nc2ccccc2[nH]1)c1cccc(CN2C(=O)N(Cc3cccc(C(=O)Nc4nc5ccccc5[nH]4)c3)[C@H](Cc3ccccc3)[C@H](O)[C@@H](O)[C@H]2Cc2ccccc2)c1`, in data set [1], the solubility amounted to 0.05 µg/mL (≈ 0.0606 µM). Also, the IC90 came to 21 nM in data set [2], 5 nM in data set [3], 5 nM in data set [4] and 5 nM in data set [6].

On to `CCCCCC[C@@H]1[C@H](O)[C@@H](O)[C@@H](Cc2ccccc2)N(Cc2cccc(C(=O)Nc3nc4ccccc4[nH]3)c2)C(=O)N1Cc1cccc(C(=O)Nc2nc3ccccc3[nH]2)c1`, for which the solubility in data set [1] was found to be 118 µg/mL (≈ 144 µM). Besides, the IC90 in data set [2] stood at 24 nM; in data set [3] it was 24 nM; in data set [4] it was 9 nM; in data set [6], 9 nM. In addition, in data set [5], the pKi was 10.34.
